Source: patent publication US12128049B2, “Dosage regimen of paliperidone palmitate extended-release injectable suspension” (Luye Innomind Pharma Shijiazhuang Co., Ltd., priority 2017, dated 2024)
Where “and” joins values, the source holds several entries; their conditions need not be identical. Equal entries are not always repeated.

Legend:
[1] = PK in beagle dogs under RLD regimen: IM 4.6 mg/kg day 1, 3.1 mg/kg day 8, 2.3 mg/kg day 36 (Groups I, IV); assay type: in vivo
Experimental: (§1) 20 healthy male beagle dogs (average weight about 11 kg) were randomly divided into 5 groups (Groups I-V) with 4 dogs in each group. Each animal was assigned its own number (#1-#20).
(§2) Group I animals (#1-#4) and Group IV animals (#13-#16) were tested under RLD regimen. Group II animals (#5-#8) were tested under Regimen A. Group III animals (#9-#12) and Group V animals (#17-#20) were tested under Regimen B. Table 5 summarizes the respective human dosages (mg of paliperidone) and the equivalent animal dosages (converted to mg/kg) and the dosing intervals under each dosing regimen.
(§3) The animals in each group received intramuscular injections according to the dosing regimen assigned to the group. Blood samples (1 ml/collection) were collected from the forelimb vein of each beagle immediate before administration (at 0 h), and thereafter at time intervals of 6 h (day 1), 24 hr (day 2), day 3, day 5, day 8 (prior to dosing for groups receiving RLD regimen), day 9, day 11, day 13, day 15 (prior to dosing for groups receiving Regimen A), day 17, day 19, day 22, day 24, day 26, day 29 (prior to dosing for groups receiving Regimen A), day 30, day 32, day 34, day 36 (prior to dosing for groups receiving RLD and Regimen A), day 37, day 39, day 42, day 45, day 47, day 50, day 53, day 57, day 64, day 71, day 78, and day 85. The blood samples were placed in heparinized centrifuge tubes and centrifuged for 10 min (3500 rpm). The plasma was separated, collected and stored under −80° C.

[2] = over a broad pH range; cited from earlier work
[3] = PK in beagle dogs under Regimen A: IM 6.2 mg/kg day 1, 1.5 mg/kg day 15, 2.3 mg/kg day 36 (Group II); assay type: in vivo
Experimental: as §1, §2, §3

[4] = PK in beagle dogs under Regimen B: IM 6.9 mg/kg day 1, 3.1 mg/kg day 29 (Groups III, V); assay type: in vivo
Experimental: as §1, §2, §3

[5] = Regimen B, Group V vs Group IV (FIG. 10B)

AUC(0-t) ([1]; Group I, mean): 3332.54 µg·days/L | AUC(0-∞) ([1]; Group I, mean): 3480.22 µg·days/L | AUC(0-t) ([1]; Group IV, mean): 2537.85 µg·days/L | AUC(0-∞) ([1]; Group IV, mean): 2591.12 µg·days/L | AUC(0-t) ([3]; mean): 3208.80 µg·days/L | AUC(0-∞) ([3]; mean): 3472.24 µg·days/L | overall drug exposures (AUC) ([4]; RLD Regimen, Regimen A and Regimen B, Groups I-III (FIG. 10A)): comparable for all three Regimens | Cmax vs RLD Regimen ([4]; Regimen B, Group III vs Group I (FIG. 10A)): comparable to that of RLD Regimen | Cmax vs RLD Regimen [4, 5]: comparable to that of RLD Regimen | time to Cmax vs RLD Regimen [4, 5]: reached Cmax earlier
Structure (SMILES): CCCCCCCCCCCCCCCC(=O)OC1CCCn2c1nc(C)c(CCN1CCC(c3noc4cc(F)ccc34)CC1)c2=O (racemic) [paliperidone palmitate, (9RS)-3-[2-[4-(6-Fluoro-1,2-benzisoxazol-3-yl)piperidin-1-yl]ethyl]-2-methyl-4-oxo-6,7,8,9-tetrahydro-4H-pyrido[1,2-a]pyrimadin-9-yl hexadecanoate]
AUC(0-t) ([1]; Group I, individual dogs): 3632.18 µg·days/L and 2010.03 µg·days/L and 3477.47 µg·days/L and 4210.47 µg·days/L | AUC(0-∞) ([1]; Group I, individual dogs): 3682.95 µg·days/L and 2012.83 µg·days/L and 4010.14 µg·days/L and 4214.96 µg·days/L | AUC(0-t) ([1]; Group IV, individual dogs): 2528.69 µg·days/L and 3241.40 µg·days/L and 3191.02 µg·days/L and 1190.27 µg·days/L | AUC(0-∞) ([1]; Group IV, individual dogs): 2546.38 µg·days/L and 3312.15 µg·days/L and 3194.15 µg·days/L and 1311.82 µg·days/L | solubility in aqueous media [2]: practically insoluble | AUC(0-t) ([3]; individual dogs): 4069.12 µg·days/L and 3146.75 µg·days/L and 3336.44 µg·days/L and 2282.89 µg·days/L | AUC(0-∞) ([3]; individual dogs): 4285.47 µg·days/L and 3544.02 µg·days/L and 3446.66 µg·days/L and 2612.80 µg·days/L | trough (day 28) vs RLD Regimen [4, 5]: comparable to the same-day concentration of RLD Regimen and higher than the trough of the RLD Regimen
